Reference: patent US9546150B2, “Substituted quinazolin-4-ones for inhibiting ubiquitin specific protease 7” (HYBRIGENICS SA, priority 2011, dated 2017)

Columns and labels:
USP8 = molecular target: T1, USP8 (Homo sapiens, UniProt P40818); test: GST-Ub52-Flag HTRF deubiquitinating enzyme assay, USP8
T1 sequence (P40818 1-1118): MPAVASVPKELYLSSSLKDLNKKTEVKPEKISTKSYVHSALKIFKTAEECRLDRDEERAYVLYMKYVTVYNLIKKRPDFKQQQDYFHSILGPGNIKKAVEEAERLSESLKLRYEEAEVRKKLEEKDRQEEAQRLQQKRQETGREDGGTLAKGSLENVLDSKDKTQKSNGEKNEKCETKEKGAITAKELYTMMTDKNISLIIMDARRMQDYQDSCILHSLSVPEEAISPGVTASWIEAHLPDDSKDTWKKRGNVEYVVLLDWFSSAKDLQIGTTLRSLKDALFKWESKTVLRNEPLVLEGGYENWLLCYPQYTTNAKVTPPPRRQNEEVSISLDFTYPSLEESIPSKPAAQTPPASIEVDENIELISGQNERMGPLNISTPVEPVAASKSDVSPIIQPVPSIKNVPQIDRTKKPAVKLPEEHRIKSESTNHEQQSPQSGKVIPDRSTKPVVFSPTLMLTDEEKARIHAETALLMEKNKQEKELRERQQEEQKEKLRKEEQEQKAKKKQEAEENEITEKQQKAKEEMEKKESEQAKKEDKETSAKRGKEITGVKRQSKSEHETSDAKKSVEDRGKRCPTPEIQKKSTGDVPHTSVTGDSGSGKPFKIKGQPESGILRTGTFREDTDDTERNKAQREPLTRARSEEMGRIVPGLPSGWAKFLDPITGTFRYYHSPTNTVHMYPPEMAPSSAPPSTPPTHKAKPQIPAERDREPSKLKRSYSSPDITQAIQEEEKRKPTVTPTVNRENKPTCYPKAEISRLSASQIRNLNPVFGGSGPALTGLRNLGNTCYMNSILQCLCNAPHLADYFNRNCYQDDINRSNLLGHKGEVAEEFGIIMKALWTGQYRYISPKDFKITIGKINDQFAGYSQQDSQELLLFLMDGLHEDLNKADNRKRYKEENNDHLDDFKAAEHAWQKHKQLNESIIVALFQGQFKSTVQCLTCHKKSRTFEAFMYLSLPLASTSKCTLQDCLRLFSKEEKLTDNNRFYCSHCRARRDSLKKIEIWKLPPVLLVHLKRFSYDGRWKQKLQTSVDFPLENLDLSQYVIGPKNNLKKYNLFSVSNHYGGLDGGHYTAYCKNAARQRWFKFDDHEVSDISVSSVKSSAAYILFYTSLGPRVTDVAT
Source text: The cDNA encoding USP8 was obtained by PCR amplification from placenta mRNA. USP8 cDNA was subcloned by PCR into a baculovirus expression vector (pFastBac-HT; Invitrogen). A cDNA encoding a mutated USP8 was generated by mutagenic PCR. […] The sequences were ascertained by sequencing of the entire open reading frame. Bacmids encoding USP8 were generated following DH10bac transposition. The corresponding bacmids were transfected into insect cells (Sf9). Viruses were recovered from culture supernatant and amplified twice. Insect cells (Sf9 or High Five; Invitrogen) were infected for 72 hours. […] Proteins were affinity purified on metal affinity resins (Talon Metal affinity resin; BD Biosciences). Bound materials were extensively washed in wash buffer (50 mM Sodium Phosphate pH 7.0; 300 mM NaCl; 10 mM imidazole; 0.5% Triton X-100; 10% glycerol) and eluted from the resin in 250 mM imidazole-containing wash buffer. Proteins were dialyzed in dialysis buffer (Tris HCl pH 7.6 20 mM; NaCl 200 mM; DTT 1 mM; EDTA 1 mM; 10% Glycerol).
A cDNA encoding the fusion protein between ubiquitin and the ribosomal protein L40 (ub52 or uba52 or ubiquitin-L40) was amplified from human RNA using a proprietary human placenta library. The cDNA was subcloned into a bacterial expression vector (pGEX-2T, GE Healthcare), including an additional flag tag at the carboxyl end of the encoded protein.
For production and purification of recombinant proteins, the plasmid pGEX-2T-Ub52-flag was transformed into E. coli BL21 (Stratagene), grown in LB medium supplemented with 100 mg/ml ampicillin (LB ampi) at 37° C. overnight and then diluted 1/100 in LB ampi. The cells were incubated at 37° C. until an A600=0.6-0.8 was reached. After induction with 0.1 mM isopropyl-β-D-thiogalactopyranoside (IPTG), the culture was incubated at 30° C. for 180 min.
Cells were harvested by centrifugation for 15 min at 7000×g at 4° C. Bacterial pellets were lysed in NETN (Tris HCl pH 8.0; EDTA 1 mM; NP40 0.5%; protease inhibitor cocktail, PMSF 1 mM) and briefly sonicated. Insoluble material was removed by centrifugation 30 min at 14000×g. […] Briefly, soluble fraction was incubated on Glutathione beads pre-equilibrated in NETN buffer+0.5% Milk for 120 min at 4° C. Flow Through was recovered. Beads were extensively washed: the last wash was performed in Tris HCl pH 7.6 20 mM; NaCl 100 mM; MgCl2 12 mM. Elutions were performed using 20 mM Reduced Glutathione in 50 mM Tris HCl pH 8.0, NaCl 120 mM. […] Elutions were dialysed over night at 4° C. in Tris HCl pH 7.6 20 mM; NaCl 50 mM; DTT 0.5 mM.
The use of GST-Ub52-Flag is based on the time-resolved measurement of fluorescence emitted by transfer in homogenous medium.
The assay is carried out on multiwell assay plates. The plates are analyzed on a PHERAstar fluorimeter (BMG) after an overnight incubation at 4° C.
The enzyme reaction is carried out by mixing GST-Ub52-flag solution with 5 μl of USP7 solution (200 pM final) or 5 μl of USP8 (400 pM final). This mixture is incubated for one hour at room temperature on a multiwell assay plate. […] The plate is read after an overnight incubation at 4° C. on a PHERAstar fluorimeter (BMG).
The decrease in the signal correlates with the increase in enzyme activity i.e. the cleavage of GST-Ub52-Flag substrate.
Data (mean values+/−standard deviation) were analyzed as % of control (no compound) and plotted as percentage versus the Log of the compound concentration using GraphPad (Prism).

USP7 = USP7 (Homo sapiens, UniProt Q93009); test: GST-Ub52-Flag HTRF deubiquitinating enzyme assay, USP7; format: biochemical; design: Full-length wild-type human USP7 and its catalytic mutant; His tag (pFastBac-HT vector) (N); made in house; host or cells: Spodoptera frugiperda Sf9 (or High Five) insect cells, baculovirus; conditions: GST-Ub52-Flag substrate, USP7 200 pM
Method: Bacmid DNA was prepared by an alkaline lysis procedure. The integrity of the bacmid minipreps and their orientation were checked by PCR, using generic and specific primers. Sf9 insect cells were cultured in InsectXpress medium (Cambrex) at 27° C. and transfected with the corresponding bacmid, using GeneShuttle 40 (Q-BIOgen). Viruses were recovered in the supernatant 72 h after transfection. Viruses were amplified by infecting insect cells (Sf9 or High Five cells; invitrogen) in 50 ml InsectXpress medium in a 150 cm^2 cell culture flask with 500 μl of the supernatant from transfected Sf9 cells. Following the second round of amplification, infected cells were recovered by rapid SDS lysis, boiled for 5 min at 100° C., sonicated briefly and centrifuged for 20 min at 14,000 g.
Flow Through was recovered.

USP7, sequence (Q93009 whole entry): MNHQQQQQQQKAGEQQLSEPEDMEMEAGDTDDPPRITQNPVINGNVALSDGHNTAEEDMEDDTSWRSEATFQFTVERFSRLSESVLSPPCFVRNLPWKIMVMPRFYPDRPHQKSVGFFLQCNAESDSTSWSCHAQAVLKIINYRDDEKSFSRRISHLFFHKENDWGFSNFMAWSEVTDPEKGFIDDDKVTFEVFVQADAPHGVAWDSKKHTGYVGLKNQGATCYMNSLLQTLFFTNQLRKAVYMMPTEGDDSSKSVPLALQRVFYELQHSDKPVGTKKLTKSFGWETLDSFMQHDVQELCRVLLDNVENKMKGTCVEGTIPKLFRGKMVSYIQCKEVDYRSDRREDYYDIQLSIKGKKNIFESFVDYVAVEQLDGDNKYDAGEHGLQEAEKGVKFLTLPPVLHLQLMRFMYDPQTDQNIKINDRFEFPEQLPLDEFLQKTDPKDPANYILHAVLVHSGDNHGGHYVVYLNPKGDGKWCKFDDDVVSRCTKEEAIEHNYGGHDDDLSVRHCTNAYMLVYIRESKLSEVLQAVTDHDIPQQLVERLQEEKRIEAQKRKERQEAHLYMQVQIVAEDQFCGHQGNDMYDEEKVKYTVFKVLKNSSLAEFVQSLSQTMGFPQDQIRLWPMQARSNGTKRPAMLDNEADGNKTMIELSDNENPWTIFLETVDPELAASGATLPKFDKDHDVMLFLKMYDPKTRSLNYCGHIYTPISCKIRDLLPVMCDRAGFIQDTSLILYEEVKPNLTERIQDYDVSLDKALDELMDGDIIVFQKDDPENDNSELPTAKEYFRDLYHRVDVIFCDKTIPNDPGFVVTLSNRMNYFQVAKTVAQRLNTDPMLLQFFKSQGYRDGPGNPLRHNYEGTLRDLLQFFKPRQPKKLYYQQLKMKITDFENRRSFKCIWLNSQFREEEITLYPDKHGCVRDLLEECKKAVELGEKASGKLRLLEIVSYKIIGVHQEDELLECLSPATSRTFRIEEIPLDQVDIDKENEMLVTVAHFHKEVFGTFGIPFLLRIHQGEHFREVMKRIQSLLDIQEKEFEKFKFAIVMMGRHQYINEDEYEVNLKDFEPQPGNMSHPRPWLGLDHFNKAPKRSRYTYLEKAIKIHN

IC50 (USP8): > 200 µM
IC50 (USP7): 224 µM
Structure (SMILES): O=C(COc1cccc(F)c1)N1CCC(O)(Cn2cnc3ccccc3c2=O)CC1 [Example 8, 3-({1-[2-(3-fluorophenoxy)acetyl]-4-hydroxypiperidin-4-yl}methyl)-3,4-dihydroquinazolin-4-one]
